PubChem BioAssay (NCI)
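GI50: concentration for 50% inhibition of growth. TGI is the concentration that stops growth completely.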

What was measured:
Test in all cases: inhibition of tumour cell growth, NCI panel, 384-well format
UACC-62 melanoma = tested on: UACC-62 melanoma
HOP-62 NSCLC = tested on: HOP-62 NSCLC
NCI-H226 lung = tested on: NCI-H226 lung
A498 renal = tested on: A498 renal
SNB-75 CNS = tested on: SNB-75 CNS
ACHN renal = tested on: ACHN renal
NCI-H460 NSCLC = tested on: NCI-H460 NSCLC
SNB-19 CNS = tested on: SNB-19 CNS
MDA-MB-435 melanoma = tested on: MDA-MB-435 melanoma
A549 NSCLC = tested on: A549 NSCLC
T-47D breast = tested on: T-47D breast
SF-295 CNS = tested on: SF-295 CNS
HOP-92 NSCLC = tested on: HOP-92 NSCLC
HL-60(TB) leukemia = tested on: HL-60(TB) leukemia
MCF7 breast = tested on: MCF7 breast
UO-31 renal = tested on: UO-31 renal
K-562 leukemia = tested on: K-562 leukemia
CCRF-CEM leukemia = tested on: CCRF-CEM leukemia
SK-MEL-28 melanoma = tested on: SK-MEL-28 melanoma
HCC-2998 colon = tested on: HCC-2998 colon
SW-620 colon = tested on: SW-620 colon
NCI/ADR-RES ovarian = tested on: NCI/ADR-RES ovarian
SF-268 CNS = tested on: SF-268 CNS
NCI-H322M lung = tested on: NCI-H322M lung
PC-3 prostate = tested on: PC-3 prostate
NCI-H522 lung = tested on: NCI-H522 lung
CAKI-1 renal = tested on: CAKI-1 renal
OVCAR-4 ovarian = tested on: OVCAR-4 ovarian
SK-OV-3 ovarian = tested on: SK-OV-3 ovarian
HCT-15 colon = tested on: HCT-15 colon
MOLT-4 leukemia = tested on: MOLT-4 leukemia
BT-549 breast = tested on: BT-549 breast
SR leukemia = tested on: SR leukemia
RPMI-8226 leukemia = tested on: RPMI-8226 leukemia
M14 melanoma = tested on: M14 melanoma
786-0 renal = tested on: 786-0 renal
COLO 205 colon = tested on: COLO 205 colon
MDA-MB-231 breast = tested on: MDA-MB-231 breast
OVCAR-3 ovarian = tested on: OVCAR-3 ovarian
TK-10 renal = tested on: TK-10 renal
NCI-H23 lung = tested on: NCI-H23 lung
SF-539 CNS = tested on: SF-539 CNS
OVCAR-8 ovarian = tested on: OVCAR-8 ovarian
DU-145 prostate = tested on: DU-145 prostate
OVCAR-5 ovarian = tested on: OVCAR-5 ovarian
KM12 colon = tested on: KM12 colon
SK-MEL-5 melanoma = tested on: SK-MEL-5 melanoma
UACC-257 melanoma = tested on: UACC-257 melanoma
SN12C renal = tested on: SN12C renal
HS 578T breast = tested on: HS 578T breast
MALME-3M melanoma = tested on: MALME-3M melanoma
U251 glioblastoma = tested on: U251 glioblastoma
HT29 colon = tested on: HT29 colon
LOX IMVI melanoma = tested on: LOX IMVI melanoma
EKVX NSCLC = tested on: EKVX NSCLC
MDA-MB-468 breast = tested on: MDA-MB-468 breast

SMILES: S=C(NCc1ccc2c(c1)OCO2)N1CCN(c2ncnc3c2oc2ccccc23)CC1
- GI50 (UACC-62 melanoma): > 100 µM
- TGI (UACC-62 melanoma): > 100 µM
- GI50 (HOP-62 NSCLC): 2.78 µM
- TGI (HOP-62 NSCLC): > 100 µM
- GI50 (NCI-H226 lung): 23.6 µM
- TGI (NCI-H226 lung): > 100 µM
- GI50 (A498 renal): 2.95 µM
- TGI (A498 renal): > 100 µM
- GI50 (SNB-75 CNS): > 100 µM
- TGI (SNB-75 CNS): > 100 µM
- GI50 (ACHN renal): > 100 µM
- TGI (ACHN renal): > 100 µM
- GI50 (NCI-H460 NSCLC): 2.94 µM
- TGI (NCI-H460 NSCLC): 9.25 µM
- GI50 (SNB-19 CNS): > 100 µM
- TGI (SNB-19 CNS): > 100 µM
- GI50 (MDA-MB-435 melanoma): 72.4 µM
- TGI (MDA-MB-435 melanoma): > 100 µM
- GI50 (A549 NSCLC): 9.14 µM
- TGI (A549 NSCLC): > 100 µM
- GI50 (T-47D breast): 0.593 µM
- TGI (T-47D breast): 8.23 µM
- GI50 (SF-295 CNS): > 100 µM
- TGI (SF-295 CNS): > 100 µM
- GI50 (HOP-92 NSCLC): 62.7 µM
- TGI (HOP-92 NSCLC): > 100 µM
- GI50 (HL-60(TB) leukemia): 3.18 µM
- TGI (HL-60(TB) leukemia): 30.8 µM
- GI50 (MCF7 breast): 3.01 µM
- TGI (MCF7 breast): > 100 µM
- GI50 (UO-31 renal): 15.9 µM
- TGI (UO-31 renal): 89 µM
- GI50 (K-562 leukemia): 1.62 µM
- TGI (K-562 leukemia): > 100 µM
- GI50 (CCRF-CEM leukemia): 0.917 µM
- TGI (CCRF-CEM leukemia): 3.63 µM
- GI50 (SK-MEL-28 melanoma): > 100 µM
- TGI (SK-MEL-28 melanoma): > 100 µM
- GI50 (HCC-2998 colon): 21.7 µM
- TGI (HCC-2998 colon): > 100 µM
- GI50 (SW-620 colon): > 100 µM
- TGI (SW-620 colon): > 100 µM
- GI50 (NCI/ADR-RES ovarian): 1.36 µM
- TGI (NCI/ADR-RES ovarian): 6.54 µM
- GI50 (SF-268 CNS): > 100 µM
- TGI (SF-268 CNS): > 100 µM
- GI50 (NCI-H322M lung): 2.55 µM
- TGI (NCI-H322M lung): > 100 µM
- GI50 (PC-3 prostate): 67.6 µM
- TGI (PC-3 prostate): > 100 µM
- GI50 (NCI-H522 lung): 35.4 µM
- TGI (NCI-H522 lung): > 100 µM
- GI50 (CAKI-1 renal): > 100 µM
- TGI (CAKI-1 renal): > 100 µM
- GI50 (OVCAR-4 ovarian): 5.77 µM
- TGI (OVCAR-4 ovarian): > 100 µM
- GI50 (SK-OV-3 ovarian): 6.63 µM
- TGI (SK-OV-3 ovarian): > 100 µM
- GI50 (HCT-15 colon): 33.2 µM
- TGI (HCT-15 colon): > 100 µM
- GI50 (MOLT-4 leukemia): 1.48 µM
- TGI (MOLT-4 leukemia): 4.8 µM
- GI50 (BT-549 breast): 7.53 µM
- TGI (BT-549 breast): > 100 µM
- GI50 (SR leukemia): 0.49 µM
- TGI (SR leukemia): 3.36 µM
- GI50 (RPMI-8226 leukemia): 1.79 µM
- TGI (RPMI-8226 leukemia): 89.1 µM
- GI50 (M14 melanoma): > 100 µM
- TGI (M14 melanoma): > 100 µM
- GI50 ([…]-0 renal): 80.6 µM
- TGI (786-0 renal): > 100 µM
- GI50 (COLO 205 colon): > 100 µM
- TGI (COLO 205 colon): > 100 µM
- GI50 (MDA-MB-231 breast): 6.31 µM
- TGI (MDA-MB-231 breast): > 100 µM
- GI50 (OVCAR-3 ovarian): > 100 µM
- TGI (OVCAR-3 ovarian): > 100 µM
- GI50 (TK-10 renal): 71.6 µM
- TGI (TK-10 renal): > 100 µM
- GI50 (NCI-H23 lung): 1.87 µM
- TGI (NCI-H23 lung): > 100 µM
- GI50 (SF-539 CNS): > 100 µM
- TGI (SF-539 CNS): > 100 µM
- GI50 (OVCAR-8 ovarian): 3.04 µM
- TGI (OVCAR-8 ovarian): > 100 µM
- GI50 (DU-145 prostate): > 100 µM
- TGI (DU-145 prostate): > 100 µM
- GI50 (OVCAR-5 ovarian): > 100 µM
- TGI (OVCAR-5 ovarian): > 100 µM
- GI50 (KM12 colon): > 100 µM
- TGI (KM12 colon): > 100 µM
- GI50 (SK-MEL-5 melanoma): 1.06 µM
- TGI (SK-MEL-5 melanoma): 2.69 µM
- GI50 (UACC-257 melanoma): 6.23 µM
- TGI (UACC-257 melanoma): > 100 µM
- GI50 (SN12C renal): > 100 µM
- TGI (SN12C renal): > 100 µM
- GI50 (HS 578T breast): 23.2 µM
- TGI (HS 578T breast): > 100 µM
- GI50 (MALME-3M melanoma): > 100 µM
- TGI (MALME-3M melanoma): > 100 µM
- GI50 (U251 glioblastoma): 8.72 µM
- TGI (U251 glioblastoma): > 100 µM
- GI50 (HT29 colon): > 100 µM
- TGI (HT29 colon): > 100 µM
- GI50 (LOX IMVI melanoma): 3.02 µM
- TGI (LOX IMVI melanoma): > 100 µM
- GI50 (EKVX NSCLC): 6.12 µM
- TGI (EKVX NSCLC): > 100 µM
- GI50 (MDA-MB-468 breast): 0.673 µM
- TGI (MDA-MB-468 breast): 3.32 µM
